# In ChEMBL document CHEMBL1201862, “PubChem BioAssay data set” (2004):
#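 Five compound concentrations were applied to cells in 96-well plates for 48 hours; endpoints were derived by simple linear interpolation of the resulting dose-response curve. GI50 marks 50% less growth.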 Active and inactive are the calls of the source. Rule as the data show it: active = GI50 up to about 1.1 µM and inactive = higher.
# How the values were obtained:
# Experiment in all cases: inhibition of tumour cell growth, NCI panel, 48 h
# HOP-18 = test system: HOP-18
# DLD-1 = test system: DLD-1
# KM-20L2 = test system: KM-20L2
# DMS-114 = test system: DMS-114
# XF498 = test system: XF498
# DMS-273 = test system: DMS-273
# SNB-78 = test system: SNB-78
# LXFL 529 = test system: LXFL 529
# RXF 631 = test system: RXF 631
Compound,GI50 (HOP-18),GI50 (DLD-1),GI50 (KM-20L2),GI50 (DMS-114),GI50 (XF498),GI50 (DMS-273),GI50 (SNB-78),GI50 (LXFL 529),GI50 (RXF 631)
Cc1c(C(=O)CC(=O)C(=O)Nc2ccc(Cl)cc2)[n+]([O-])c2ccccc2[n+]1[O-],75 µM (inactive),> 100 µM (inactive),> 100 µM (inactive),> 100 µM (inactive),> 100 µM (inactive),> 100 µM (inactive),> 100 µM (inactive),> 100 µM (inactive),–
Nc1ccc(C(c2ccccc2)(c2ccccc2)c2ccccc2)cc1,–,95.9 µM (inactive),–,64 µM (inactive),4.24 µM (inactive),50.1 µM (inactive),34.4 µM (inactive),37.1 µM (inactive),47 µM (inactive)
Cc1cc(C)nc(NS(=O)(=O)c2ccc(NC(=O)c3cccc4c(Nc5ccc(S(=O)(=O)N=C(N)N)cc5)c5ccc(Cl)cc5nc34)cc2)n1,–,17.7 µM (inactive),59 µM (inactive),45.7 µM (inactive),> 100 µM (inactive),–,40.6 µM (inactive),27.6 µM (inactive),28.6 µM (inactive)
C/C(O)=C1\CC2CN3CCc4c([nH]c5ccccc45)C3CC2CC1=O (configuration not stated),52.8 µM (inactive),40.6 µM (inactive),92 µM (inactive),46.2 µM (inactive),32 µM (inactive),57.4 µM (inactive),32.9 µM (inactive),34.4 µM (inactive),–
CCCCCCCCCCCCCCCC(=O)NCC(OCC)OCC,> 100 µM (inactive),> 100 µM (inactive),> 100 µM (inactive),> 100 µM (inactive),> 100 µM (inactive),> 100 µM (inactive),> 100 µM (inactive),> 100 µM (inactive),> 100 µM (inactive)
COc1ccc2c(c1)CN1CCc3c(cc(OC)c(OC)c3OC)C1C2 (configuration not stated),> 100 µM (inactive),> 100 µM (inactive),> 100 µM (inactive),58.5 µM (inactive),38.7 µM (inactive),> 100 µM (inactive),> 100 µM (inactive),39.4 µM (inactive),–
COC(=O)C(C(=O)C(=O)Nc1ccc(N)cc1[N+](=O)[O-])c1nc2ccc(Cl)cc2nc1O (configuration not stated),72.3 µM (inactive),> 100 µM (inactive),> 100 µM (inactive),> 100 µM (inactive),70.8 µM (inactive),> 100 µM (inactive),> 100 µM (inactive),–,–
COc1ccc(C2S/C(=C\c3ccccc3)C(=O)N2NC(=O)Cc2ccccc2)cc1 (configuration not stated),> 100 µM (inactive),> 100 µM (inactive),–,–,–,> 100 µM (inactive),–,> 100 µM (inactive),–
Cc1nc(N)nc(N)c1-c1ccc(Cl)c(Cl)c1 [METOPRINE],25.8 µM (inactive),0.427 µM (active),0.94 µM (active),0.149 µM (active),34.8 µM (inactive),0.157 µM (active),26.3 µM (inactive),0.404 µM (active),–
Cc1cccc(C(C)(C)C)c1NC(=O)CC1C(=O)Nc2ccccc2S1(=O)=O (configuration not stated),–,5.5 µM (inactive),9.29 µM (inactive),–,11.1 µM (inactive),4.25 µM (inactive),8.24 µM (inactive),12 µM (inactive),–
CC(C)(C)N/N=C(\C(=O)Nc1nnc(S)[nH]1)C1C(=O)Nc2ccccc2[S+]1[O-] (configuration not stated),> 100 µM (inactive),> 100 µM (inactive),> 100 µM (inactive),> 100 µM (inactive),> 100 µM (inactive),> 100 µM (inactive),> 100 µM (inactive),> 100 µM (inactive),> 100 µM (inactive)
C[C@]12CCc3nonc3C1CC[C@@H]1C2CC[C@]2(C)NC(=O)CCC12 (some centres not stated),> 100 µM (inactive),–,> 100 µM (inactive),–,> 100 µM (inactive),> 100 µM (inactive),> 100 µM (inactive),> 100 µM (inactive),> 100 µM (inactive)
O=C(CC1Sc2ccccc2NC1=O)Nc1cc(Cl)ccc1Cl (configuration not stated),–,> 100 µM (inactive),> 100 µM (inactive),> 100 µM (inactive),–,> 100 µM (inactive),> 100 µM (inactive),> 100 µM (inactive),> 100 µM (inactive)
O=C1c2ccccc2-c2ccccc2C(=O)C1(Br)Br,13.4 µM (inactive),6.75 µM (inactive),16.9 µM (inactive),15.2 µM (inactive),–,15.6 µM (inactive),8.11 µM (inactive),7.96 µM (inactive),–
O=C(NC(=O)c1cc2cc(Br)cc(Br)c2oc1=O)Oc1ccccc1,> 100 µM (inactive),> 100 µM (inactive),> 100 µM (inactive),65.2 µM (inactive),37.4 µM (inactive),> 100 µM (inactive),> 100 µM (inactive),> 100 µM (inactive),–
O=C(CCc1nnc(S)[nH]1)Nc1cc(Cl)ccc1Cl,> 100 µM (inactive),> 100 µM (inactive),> 100 µM (inactive),> 100 µM (inactive),–,> 100 µM (inactive),–,> 100 µM (inactive),> 100 µM (inactive)
CC(=O)OC(C)(C)/C=C/C(=O)[C@](C)(O)[C@H]1[C@H](O)C[C@@]2(C)[C@@H]3CC=C4[C@@H](C[C@H](O)[C@H](O)C4(C)C)[C@]3(C)C(=O)C[C@]12C,1.05 µM (active),0.274 µM (active),0.513 µM (active),0.324 µM (active),0.422 µM (active),0.421 µM (active),0.453 µM (active),0.347 µM (active),0.679 µM (active)
COc1ccc(C2C(Cl)C(=O)N2NC(=O)c2ccc(NC(C)=O)cc2)cc1 (configuration not stated),–,> 100 µM (inactive),> 100 µM (inactive),–,> 100 µM (inactive),> 100 µM (inactive),> 100 µM (inactive),> 100 µM (inactive),–
